According to patent publication US20210228523A1, “MODULATORS OF SESTRIN-GATOR2 INTERACTION AND USES THEREOF” (Navitor Pharmaceuticals, Inc., priority 2017, published 2021):

Tests used:
mTORC1 signaling = assay: Cell-based mTORC1 activation (Method 2): western blot of phosphorylated S6 Kinase/4EBP1 in leucine-starved HEK293T cells; details: concentration 100 μM, shift relative to DMSO control
Protocol: Briefly, 800,000 HEK293T cells were plated in each well of a 6-well plate in DMEM supplemented with 10% fetal bovine serum and antibiotics. […] Cells were then lysed, processed for SDS-PAGE and western blotting was performed with antibodies directed against the mTORC1 substrates phosphorylated S6 Kinase (Thr389) and phosphorylated 4EBP1 (Thr37/46) (Cell Signaling Technology) and loading controls (beta-actin, Santa Cruz Biotechnology) as described in Kang, S. A., et al. Science 341(6144): 364-374 (2013). The intensity of the bands corresponding to the phosphorylated substrates were then normalized to the actin band using the LI-COR® imaging platform.

[1] = molecular target: T1, GATOR2/Sestrin2 complexes (Homo sapiens, UniProt P58004); assay: In vitro PPI assay (Method 1; Western blot assay): Sestrin2 bound to GATOR2 after compound addition to immunoprecipitated FLAG-WDR24 complex; assay type: binding; details: 25 μM, % activity relative to leucine (25 μM = 100%)
T1 construct: endogenous in cells; host or cells: HEK293T cells stably expressing FLAG-WDR24 (lentiviral, pLJM60)
T1 sequence (P58004 1-480): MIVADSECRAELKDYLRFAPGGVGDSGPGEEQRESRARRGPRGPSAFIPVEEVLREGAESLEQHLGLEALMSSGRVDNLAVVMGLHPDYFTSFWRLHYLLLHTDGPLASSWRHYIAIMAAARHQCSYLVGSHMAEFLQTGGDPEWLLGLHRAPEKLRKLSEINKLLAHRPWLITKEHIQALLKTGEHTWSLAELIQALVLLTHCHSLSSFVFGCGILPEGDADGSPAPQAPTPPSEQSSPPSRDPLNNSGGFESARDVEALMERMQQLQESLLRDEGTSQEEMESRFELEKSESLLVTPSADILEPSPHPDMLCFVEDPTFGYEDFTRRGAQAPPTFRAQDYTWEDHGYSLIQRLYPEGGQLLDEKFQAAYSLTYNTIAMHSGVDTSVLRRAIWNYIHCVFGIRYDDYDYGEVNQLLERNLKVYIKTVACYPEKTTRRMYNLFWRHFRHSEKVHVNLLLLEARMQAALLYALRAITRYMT
Description: This screening assay measured test compound activity in vitro on GATOR2/Sestrin2 complexes purified via immunoprecipitation of stably expressed FLAG-WDR24 from HEK293T cells. HEK293T cells (293 Ts) were engineered to stably express N-terminally tagged FLAG-WDR24 via transduction by lentivirus. Lentiviruses were produced by co-transfection of the lentiviral transfer vector pLJM60 with the […] into HEK-293T cells using the XTremeGene 9 transfection reagent (Roche Diagnostics). The media was changed 24 hours post-transfection to Dulbecco's Modified Eagle's media (DMEM) supplemented with 30% Inactivated Fetal Serum. The virus-containing supernatants were collected 48 and 72 hours after transfection and passed through a 0.45 μm filter to eliminate cells. Target cells in 6-well tissue culture plates were infected in media containing 8 μg/mL polybrene and spin infections were performed by centrifugation at 2,200 rpm for 1 hour. Twenty-four hours after infection, the virus was removed and the cells selected with the appropriate antibiotic. Cells were then grown in DMEM supplemented with 10% fetal bovine serum and antibiotics.
Seventy-two hours later, cells were placed in standard RPMI media formulated with no amino acids and supplemented with 5 mM Glucose (−AA RPMI, US Biological Life Sciences) for 1 hour then subsequently lysed in lysis buffer (40 mM HEPES, 1% Triton, 10 mM sodium β-glycerophosphate, 10 mM sodium pyrophosphate, 2.5 mM MgCl2 and protease inhibitors). To isolate the FLAG-WDR24/endogenous-Sestrin2 complex, crude lysate (equivalent to 2-4 mg of total protein) in a volume of 1 ml was subjected to immunoprecipitation with 30 μl of anti-flag resin (SIGMA) for 2 hours at 4° C., washed twice in cold lysis buffer plus 0.5M NaCl and resuspended in 1 ml of cold cytosolic buffer (40 mM HEPES pH 7.4, 140 mM KCl, 10 mM NaCl, 2.5 mM MgCl2, 0.1% TritonX-100). […] After the incubation period, samples were centrifuged to pellet the FLAG-WDR24/endogenous-Sestrin2 complex bound to the anti-flag resin, the supernatant was completely removed and resin was resuspended in SDS-PAGE sample buffer and boiled for 5 minutes. Samples were then processed by SDS-PAGE and western blots were performed with anti-FLAG (SIGMA) and anti-Sestrin2 (Cell Signaling Technology) antibodies as described in L. Chantranupong, et al., Cell Reports 9:1-8 (2014).
The resulting western blots were scanned and band intensities corresponding to Sestrin2 and FLAG-WDR24 were quantified using the LI-COR® imaging platform. To determine the amount of Sestrin2 bound to GATOR2 for each condition, the band intensity for Sestrin2 was normalized to the band intensity of FLAG-WDR24. […]
72 hours later, cells were placed in standard RPMI media formulated with no amino acids and supplemented with 5 mM Glucose (−AA RPMI, USBiological Life Sciences) for 1 hour then subsequently lysed in lysis buffer (40 mM HEPES, 1% Triton, 10 mM Sodium Beta-Glycerophosphate, 10 mM Sodium Pyrophosphate, 2.5 mM MgCl2 and protease inhibitors). The Flag-WDR24/endogenous-Sestrin2 complex was isolated as follows: crude lysate (equivalent to 2-4 mg of total protein) in a volume of 1 ml was subjected to immunoprecipitation (IP) with 30 μl of anti-flag resin (SIGMA) for 2 hours at 4° C., washed twice in cold lysis buffer plus 0.5M NaCl and resuspended in 1 ml of cold cytosolic buffer (40 mM HEPES pH 7.4, 140 mM KCl, 10 mM NaCl, 2.5 mM MgCl2, 0.1% TritonX-100). Compounds were then added to each sample at a given concentration of 25 μM and incubated with rotation at 4° C. for 30 minutes. After the incubation period, samples were centrifuged to pellet the Flag-WDR24/endogenous-Sestrin2 complex bound to the anti-flag resin, the supernatant was completely removed and resin was resuspended in sodium dodecyl sulfate-polyacrylamide gel electrophoresis (SDS-PAGE) sample buffer and boiled for 5 minutes. […]

[2] = tested on: point mutant form of Sestrin2 unable to bind leucine; assay: ILBA with Flag-tagged point mutant Sestrin2; assay type: binding, human
Protocol: In one version, the assay was performed with crude lysate generated from a human cell line after a 1-hour period of amino acid starvation (cells are lysed in 1% Triton, 10 mM beta-glycerol phosphate, 10 mM sodium pyrophosphate, 40 mM HEPES [pH 7.4], 150 mM NaCl and 2.5 mM MgCl2). […] After compound incubation, samples were subjected to immunoprecipitation with the CST anti-Sestrin2 antibody for 1.5 hours followed by a 30-minute incubation with protein-A sepharose as described in L. Chantranupong, et al., Cell Reports 9:1-8 (2014). The sepharose conjugated antibody-protein complex was precipitated via centrifugation and the flow-through was subjected to a second round of immunoprecipitation with a rabbit polyclonal anti-Sestrin2 antibody (Protein Tech, #10795-1-AP) to determine that total Sestrin2 protein levels between samples were equal. SDS-PAGE was performed with the immunoprecipitation samples followed by western-blot with the mouse monoclonal anti-Sestrin2 antibody from SIGMA (cat #WH0083667M3).
This assay was also performed in cultured human cells over-expressing Sestrin2 N-terminally fused to a Flag tag. In this version of the assay, the procedure remained the same, but immunoblotting was performed with a mouse anti-Flag antibody (#F3165, SIGMA).

mTORC1 = assay: Western blot of pS6 in rat brain and selected peripheral organs; assay type: in vivo; details: Example D; Leu 500 mg/kg oral; 1 hr post-dose
Protocol: Study Design: Thirty (30) male rats weighing between 175 and 200 g were randomized into 3 study groups (n=10), following a 5-day acclimation period. One hour following dosing rats were sacrificed by conscious decapitation, plasma, brain and selected peripheral tissues were harvested for compound level and WB analysis. Tissues were prepared for WB to quantitate the mTORC1 substrate pS6 as a measure of mTORC1 activity.
The dosing volume based on the weight of the animal (10 mL/kg) was administered by oral gavage. Test articles were prepared the day of dosing.
Tissues Preparations: One hour following dosing rats were sacrificed by conscious decapitation, plasma, brain and peripheral tissues were harvested and immediately frozen in liquid nitrogen. Tissues were thawed and homogenized for 1 min twice using MP homogenizer in Lysis Buffer (Cell lysis buffer: 1% Triton X-100, 50 mM HEPES pH 7.4, 100 mM NaCl, 2 mM EDTA, 10 mM Beta-glycerophosphate, 10 mM Sodium pyrophosphate, and 1 protease inhibitor tab per 50 mL fresh) at 4° C. Lysates were then sonicated on ice for 20 s at 50% amplitude. The protein concentration was determined by Bradford assay and all samples were mixed with loading buffer (50 mM Tris-HCl pH 6.8, 2% SDS, 5% glycerol, 5% β-mercaptoethanol and 0.01% Bromophenol blue) and stored at −20° C. until WB analysis.
Western Blot (WB) Analysis. Equal amounts of each sample (15 μg of total protein) were loaded and separated on NuPAGE 4-12% Bis-Tris gels and transferred to PVDF membrane (Immobilon-FL PVDF membrane, Millipore) using CAPS Buffer (10 mM 3-(Cyclohexylamino)-1-propanesulfonic acid, 12.5% Ethanol pH=10). After transfer, membranes were incubated for 1 hr at room temperature in Odyssey blocking buffer (Licor). After blocking, membranes were incubated at 4° C. overnight with primary antibodies. Primary antibodies used were rabbit anti-[…] (cell signaling; #5364) at 1:1000, mouse anti-GAPDH (Sigma; #G8795) at 1:1000 and mouse anti-a-tubulin (Sigma; #T5168) at 1:10000 in Odyssey blocking buffer. The next day, membranes were washed three times in 1×TBS-Tween (25 mM Tris, pH 7.4, 3.0 mM KCl, 140 mM NaCl and 0.05% Tween-20) and incubated with dye-coupled secondary antibodies (goat anti-mouse IRdye680, and goat anti-rabbit IRdye800 from LI-COR) at 1:20000 in Odyssey blocking buffer for 30 min then wash three times in IX TBS-Tween. Signals were quantified using the Odyssey Infrared Imaging System (LI-COR Bioscience). The resulting densitometric readings were used to generate a ratio of phopho-protein to a-tubulin or GAPDH. The resulting ratio was further normalized to vehicle treated control group.

Compound | Cell-Based mTORC1 Activation (mTORC1 signaling) | Activity of Leucine: % Activity [1] | also measured
N[C@@H](CC1CCC1)C(=O)O [Compound I-37] | E to F | A (a % activity relative to leucine of ≥40%) | –
NC(CCCC(F)(F)F)C(=O)O (centres unmarked) [Compound I-42] | D to F | A (a % activity relative to leucine of ≥40%) | –
CC(C)(C)C[C@H](N)C(=O)O [Compound I-43] | D to E | A (a % activity relative to leucine of ≥40%) | –
CC(C)(C)C[C@H](N)C(=O)O [γ-methylleucine] | – | – | decrease in affinity of the CST antibody upon ligand binding [2]: not observed
COC(=O)[C@@H](N)CC(C)C [Compound I-168] | D to E | – | –
C[C@H](CC(N)C(=O)O)C(F)(F)F (stereo in doubt) [Compound I-167, (2R,4R)-2-amino-5,5,5-trifluoro-4-methylpentanoic Acid] | D to F | A (a % activity relative to leucine of ≥40%) | –
CC(C)C[C@H](N)C(N)=O.Cl [Compound I-23] | D to F | C (a % activity relative to leucine of between -40 and 40%) | –
CC(C)C[C@H](N)C(=O)O [Leu, Leucine, reference compound] | – | – | pS6 levels in rat brain (mTORC1): no activation was observed
CC(C)C[C@H](NS(=O)(=O)c1ccccc1)C(=O)O [Compound I-25, (S)-4-methyl-2-(phenylsulfonamido)pentanoic Acid] | – | C (a % activity relative to leucine of between -40 and 40%) | –
N[C@H](CCCC(F)(F)F)C(=O)O [Compound I-9, (R)-2-amino-6,6,6-trifluorohexanoic Acid] | – | C (a % activity relative to leucine of between -40 and 40%) | –
N[C@H](CCC(F)(F)F)C(=O)O [Compound I-7, (R)-2-amino-5,5,5-trifluoropentanoic Acid] | – | B (a % activity relative to leucine of ≤−40%) | –
N[C@@H](CCC(F)(F)F)C(=O)O [Compound I-6, (S)-2-amino-5,5,5-trifluoropentanoic Acid] | – | C (a % activity relative to leucine of between -40 and 40%) | –
CC(C)C[C@H](NC(=O)Cc1ccccc1)C(=O)O [Compound I-12, (S)-4-methyl-2-(2-phenylacetamido)pentanoic Acid] | – | C (a % activity relative to leucine of between -40 and 40%) | –
N[C@@H](CC(C(F)(F)F)C(F)(F)F)C(=O)O [Compound I-164, (S)-2-Amino-5,5,5-trifluoro-4-(trifluoromethyl)pentanoic Acid] | – | A (a % activity relative to leucine of ≥40%) | –
CN[C@@H](CC(C)(C)C)C(=O)O [Compound I-50] | – | C (a % activity relative to leucine of between -40 and 40%) | –
